Assay results published in US4382934A, “Isatin derivatives, processes for the preparation thereof and pharmaceutical composition comprising the same” (Fujisawa Pharmaceutical Co., Ltd., priority 1978, dated 1983).

System: anaphylactic asthma in guinea-pigs
Assay: Antagonism to anaphylactic asthma in guinea-pigs
Type: in vivo, guinea-pig (male Hartley)
Settings: 30 min before egg albumin aerosol; for Inhibitory effect of anaphylactic asthma in guinea-pig: survival more than 2 hours
Procedure: (1) Preparation of rabbit antiserum against egg albumin
Equal volumes of a saline solution of egg albumin (200 mg./ml.) and of Freund's Complete Ajuvant were mixed and emulsified. Each male New Zealand white strain rabbits, each weighing 2 to 2.5 kg., received an intramuscular injection of 0.5 ml. of the emulsion in the left and right thigh regions. One week later, they received an intradermal injection of 0.25 ml. of a saline solution of egg albumin (concentration: 20 mg./ml.) in the different four sites of the dorsal skin surface three times every other week. Blood samples were collected from the carotid artery one week after the last injection.
(2) Determination of Passive Cutaneous Anaphylaxis (PCA) titer
The level of anaphylactic anti-egg albumin antibodies in pools of sera were determined by passive cutaneous anaphylaxis (PCA) reactions using shaven Hartley strain test guinea-pigs.
Antiserum was serially diluted (two fold) in saline and 0.1 ml. of each antiserum dilution were injected intradermally into the dorsal skin surface of the test guinea-pigs. 24 Hours after intradermal sensitization,Egg albumin-specific PCA reactions were elicited by intravenous injection of 10 mg. of egg albumin in 1 ml. of 1% Evans blue dye dissolved in saline. Reactions were read and recorded as the highest dilution of serum evoking threshold PCA reactivity (5 mm diameter).
(3) Antagonism to anaphylactic asthma in guinea-pigs
Male Hartley stain guinea-pigs, weighing 305 to 400 g, were used. Animals were sensitized by an intravenous injection of rabbit antiserum against egg albumin (4000 PCA titer) with 0.5 ml./animal. After 24 hours, animals were placed individually in a plastic chamber of 5.3 liter volume. An aerosol of 5% egg albumin solution was sprayed in the chamber at a rate of 0.16 ml./min with a commercial nebulizer. The test compound was given to the animals orally 30 minutes before the challenge with the egg albumin solution. Each dose group consisted of ten animals. The inhibitory effect of the test compound was determined from the number of surviving animals more than 2 hours after spray of the antigen. The ED50 value (dose to be required 50% protection from death) was calculated according to Litchfield-Wilcoxon method.

O=C1C(=O)N(CCCN2CCN(C(c3ccccc3)c3ccccc3)CC2)c2ccccc21 [1-[3-(4-Benzhydryl-1-piperazinyl)propyl]isatin]
Inhibitory effect of anaphylactic asthma in guinea-pig (0.1 mg./kg. P.O.): 0% | Inhibitory effect of anaphylactic asthma in guinea-pig (1.0 mg./kg. P.O.): 20% | Inhibitory effect of anaphylactic asthma in guinea-pig (3.2 mg./kg. P.O.): 40% | Inhibitory effect of anaphylactic asthma in guinea-pig (10.0 mg./kg. P.O.): 80% | Inhibitory effect of anaphylactic asthma in guinea-pig (32.0 mg./kg. P.O.): 100% | Inhibitory effect of anaphylactic asthma in guinea-pig (100.0 mg./kg. P.O.): 100% | ED50 (Cavia porcellus, po, 2 h, P.O., Litchfield-Wilcoxon method, read-out: ED50 (dose to be required 50% protection from death)): 3.4 mg/kg
